According to patent US20050209441A1, “Process for promoting proper folding of human serum albumin using a human serum albumin ligand” (priority 2004, published 2005):
Read-outs that look alike come from different tables or passages of the source.

Molecular target: human serum albumin (HSA) (Homo sapiens, UniProt P02768)
Test: HSA refolding with ligand assistance (ED50 for refolding)
Description: Sodium caprate is added to Solution B to a final concentration of 10 mM. Solution B is held at 37° C. for 1-5 minutes.
Step C. […] Sodium caprate is added to Solution C to a final concentration of 10 mM. Solution C is held at 37° C. for a period of 30 minutes.

Sequence of human serum albumin (HSA) (P02768 25-609): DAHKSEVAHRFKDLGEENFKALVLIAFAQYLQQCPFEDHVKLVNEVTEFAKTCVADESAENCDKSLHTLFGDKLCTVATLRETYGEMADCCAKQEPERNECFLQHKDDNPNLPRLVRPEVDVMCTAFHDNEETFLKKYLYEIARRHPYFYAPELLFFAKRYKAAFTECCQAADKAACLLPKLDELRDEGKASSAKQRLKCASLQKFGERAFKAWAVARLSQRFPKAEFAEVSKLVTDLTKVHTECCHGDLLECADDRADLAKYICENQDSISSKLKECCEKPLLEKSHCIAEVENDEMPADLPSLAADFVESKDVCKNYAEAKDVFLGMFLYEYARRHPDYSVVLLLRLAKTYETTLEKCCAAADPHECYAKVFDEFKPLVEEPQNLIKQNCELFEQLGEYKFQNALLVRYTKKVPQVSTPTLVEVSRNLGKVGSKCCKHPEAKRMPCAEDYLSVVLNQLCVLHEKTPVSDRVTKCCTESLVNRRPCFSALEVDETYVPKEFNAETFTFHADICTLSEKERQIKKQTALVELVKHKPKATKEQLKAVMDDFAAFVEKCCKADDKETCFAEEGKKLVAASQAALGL

SMILES | Optimal Concentration (refolding ligand) (Table 1) [mM] | EC50 [µM] | Optimal Concentration (refolding ligand)
CCCCO [1-Butanol (C4), 1-Butanol] | 500 | – | –
CCCCCCCCCCO [1-Decanol (C10), 1-Decanol] | 3 | 300 | –
CCCCCCCCCCCCO [1-Dodecanol (C12), 1-Dodecanol] | – | 230 | 0.3 mM (saturated)
CCCCCCO [1-Hexanol (C6), 1-Hexanol] | 25 | – | –
CCCCCCCCO [1-Octanol (C8), 1-Octanol] | 3 | 450 | –
CCCCCO [1-Pentanol (C5), 1-Pentanol] | 150 | – | –
CCCCCC(=O)[O-].[Na+] [Na Caproate, sodium caproate] | >30 | – | –
CCCCCCCCCCCC(=O)[O-].[Na+] [Na Laurate, sodium laurate] | 1 | 45 | –
CCCCOC(=O)c1ccc(N)cc1 [n-butyl p-aminobenzoate] | – | 800 | –
